Patent US20070014739A1, “Compositions and methods for controlling biofilms and bacterial infections” (priority 2005, published 2007)

Columns and labels:
E. coli UTI89[pCOMGFP] = assay: Bladder colonization (CFU) in infected mice, oral treatment; format: in vivo, Escherichia coli; conditions: C3H/HeN mice, approximately 2 days after inoculation
Procedure: Briefly, E. coli UTI89[pCOMGFP] was prepared after retrieval from frozen stocks by inoculating appropriately in LB medium statically for approximately 20 hours. Cells were harvested and suspended in 1 ml of PBS. Cells were diluted appropriately to achieve approximately 10^7 CFU input into C3H/HeN mice.
Mice were deprived of water for approximately two hours. All mice were anesthetized with isofluorane. Urine was dispelled from the bladders and an inoculum of approximately 10^7 CFU of E. coli were introduced into the bladders as indicated above. Treatments of sulfamethoxazole and trimethoprim (SMZ/TMP), asiatic acid, and combination of SMZ/TMP and asiatic acid was evaluated.
3 mice received asiatic acid by orally at approximately 25 milligram per kilogram twice a day beginning one day prior to infection each day during the experiment. Asiatic acid was prepared in 50% Labrasol®. 5 mice received SMZ/TMP in their drinking water at a concentration of 270 micrograms of SMZ per millilter and 54 micrograms of TMP per milliliter immediately after infection throughout the experiment. 5 mice received asiatic acid and SMZ/TMP in combination dosed according to the individual dosing groups. The experiment was performed for approximately 2 days after inoculation. […] The bladders were removed and colony forming units (CFU) were determined as previously described by Justice, S. et al.

[1] = tested on: E. coli clinical strain UT189 against bladder epithelial cells; assay: Binding to and invasion of bladder epithelial cells by E. coli; format: cell-based; conditions: 40 μg/ml, 60 minutes; separate experiments (n=4 to 7)
Procedure: The effect of test compounds on bacterial invasion of E. coli clinical strain UT189 was studied as described in Elsinghorst, et al. 1994, Methods Enzymol, 236:405-420; and Martinez et al., 2000, EMBO J., 19:2803-2812. Epithelial bladder cells were grown in plates. Asiatic acid, corosolic acid, or ursolic acid were added at concentrations of 10 μg/ml, 20 μg/ml, or 40 μg/ml to bacteria and epithelial cells for approximately 5, 15, 30, or 60 minutes with approximately 10^7 CFU of E. coli. Binding was assessed at time zero and invasion was assessed at approximately 5, 15, 30, or 60 minutes from completing the mixture of compound, bacteria, and epithelial cells. As a control ethanol was added to cells to a final concentration of 0.1%. The effect of bacterial viability and bacterial adherence during the infection period was evaluated according to the methods described in Martinez et al., 2000, EMBO J., 19:2803-2812.

[2] = Bladder concentrations in rats (pharmacokinetic study); conditions: rat, in vivo, po, 50 mg/kg
Procedure: Pharmacokinetic studies of asiatic acid and madecassic acid in rats were performed separately. Asiatic acid and madecassic acid were evaluated at 50 mg/kg (oral). Two animals were assigned to the each group. Prior to dosing, a baseline blood sample was taken from each animal. At time zero for asiatic acid and madecassic acid, a single bolus dose in 50% Labrasol (Gattefosse) was given to each animal. Bladders were analyzed at 24 hours. Concentrations of both asiatic acid and madecassic acid in the bladder were approximately 30 μg/g at 24 hours.

S. mutans 25175 = assay: Biofilm growth inhibition in 1 mL polycarbonate tubes; format: cell-based; conditions: Streptococcus mutans, 40 μg/mL
S. sobrinus 6715 = assay: as above; format: cell-based; conditions: Streptococcus sobrinus, 40 μg/mL
[3] = tested on: E. coli clinical strain UT189; assay: Inhibition of biofilm formation, crystal violet, 96 well plates; format: cell-based; conditions: Escherichia coli, compared to the controls, read-out: inhibited biofilm formation of the UT189 strain
Procedure: Biofilm inhibition experiments were conducted using an assay adapted from the reported protocol described in Pratt and Kolter, 1998, Molecular Microbiology, 30: 285-293; Li et al., 2001, J. Bacteriol., 183: 897-908. E. coli clinical strain UT189 was grown in LB in 96 well plates at room temperature for one or two days without shaking. E. coli laboratory strain JM109 was grown in LB plus 0.2% glucose in 96 well plates at room temperature for one day without shaking. To quantify the biofilm mass, the suspension culture was poured out and the biofilm was washed three times with water. The biofilm was stained with 0.1% crystal violet for 20 minutes. The plates were then washed three times with water. OD reading at 540 nm was measured to quantify the biofilm mass at the bottom of the wells. Then 95% ethanol was added to dissolve the dye at the bottom and on the wall and the OD reading at 540 nm was measured to quantify the total biofilm mass. To study the overall effect of the compounds (3.6 mg/mL in 100% ethanol as stock solution), it was added with the inoculation and a time course of biofilm mass was measured. Appropriate amounts of 100% ethanol were added to each sample to eliminate the effect of solvent. Each condition had 3-4 replicates on each plate and was performed over multiple days.

[4] = tested on: P. aeruginosa strain PAO1; assay: Rotating disk reactor (RDR) biofilm test with and without tobramycin, culturable bacteria; format: cell-based, Pseudomonas aeruginosa; conditions: average of three days; for CFU, Test Compound: no tobramycin; for CFU, Tobramycin and Test Compound: then tobramycin 100 μg/ml 2 h
Procedure: Biofilm formation of P. aeruginosa was evaluated using a standardized biofilm method with a rotating disk reactor (RDR). This method provides a model resembling the formation of biofilms in cystic fibrosis patients. The rotating disk reactor consists of a one-liter glass beaker fitted with a drain spout. The bottom of the vessel contains a magnetically driven rotor with six 1.27 cm diameter coupons constructed from polystyrene. The rotor consists of a star-head magnetic stir bar upon which a disk was affixed to hold the coupons. The vessel with the stir bar was placed on a stir plate and rotated to provide fluid shear. A nutrient solution (AB Trace Medium with 0.3 mM glucose, see Table 3 below for composition) was added through a stopper in the top of the reactor at a flow rate of 5 ml/min. The reactor volume was approximately 180 ml and varied slightly between reactors depending on the placement of the drain spout and the rotational speed of the rotor. At a volume of 180 ml, the residence time of the reactors was 36 minutes. The reactors were operated at room temperature (c.a. 26° C.).
For each test, two RDRs were operated in parallel with one receiving test compound and the other serving as an untreated control. The RDRs were sterilized by autoclave, then filled with sterile medium and inoculated with P. aeruginosa strain PAO1. The reactors were then incubated at room temperature in batch mode (no medium flow) for a period of 24 hours, after which the flow was initiated for a further 24 hour incubation. Test compounds were dissolved in 10 ml ethanol to achieve a concentration of 1.8 mg/ml. After the 48 hours of biofilm development described above, the 10 ml of ethanol containing the test compounds were added to the reactor to achieve a final concentration of approximately 50, 100, or 200 μg/ml. Control reactors received 10 ml of ethanol. The reactors were then incubated for an additional 24 hours in batch (no flow) mode. After this incubation period, the six coupons were removed from each reactor and placed in 12-well polystyrene tissue culture plates with wells containing either 2 ml of a 100 μg/ml tobramycin solution or 2 ml of phosphate-buffered saline (PBS). These plates were incubated at room temperature for two hours. The coupons were then rinsed by three transfers to plates containing 2 ml of fresh PBS. For each two RDR reactors run in parallel, four sets of three coupons were obtained: one set with no test compound treatment and no tobramycin treatment, one set with no test compound treatment and tobramycin treatment, one set treated with a test compound treatment and no tobramycin treatment, and one set treated with a test compound treatment and tobramycin. After rinsing, one coupon of each set of three was stained with a LIVE/DEAD® BacLight™ Bacterial Viability Kit (Molecular Probes, Eugene Oreg.) and imaged using epifluorescent microscopy. The remaining two coupons were placed in 10 ml of PBS and sonicated for five minutes to remove and disperse biofilm cells. The resulting bacterial suspensions were then serially diluted in PBS and plated on tryptic soy agar plates for enumeration of culturable bacteria. The plates were incubated for 24 hours at 37° C. before colony forming units (CFU) were determined.
The results are averages from experiments performed on three separate days for each test compound. The values reported are as loglo CFU.

C[C@H]1[C@H](C)CC[C@]2(C(=O)O)CC[C@]3(C)C(=CC[C@@H]4[C@@]5(C)C[C@@H](O)[C@H](O)[C@@](C)(CO)[C@@H]5CC[C@]43C)[C@H]12 [Asiatic acid]
bladder CFU (E. coli UTI89[pCOMGFP]; combination of SMZ/TMP and asiatic acid): 2.3×10^4 CFU | bladder CFU (E. coli UTI89[pCOMGFP]; single treatment (asiatic acid 25 mg/kg oral twice a day; SMZ/TMP 270/54 micrograms per ml in drinking water)): 2.9×10^3 CFU | reduced invasion of E. coli into bladder epithelial cells [1]: 87% | concentration at 24 h [2]: ~30000 ng/g | inhibition at 40 µg/mL (S. mutans 25175): > 75% | inhibition at 40 µg/mL (S. sobrinus 6715): > 75% | inhibition at 4 µg/mL ([3]; 4 ug/ml): ~10% | inhibition at 8 µg/mL ([3]; 8 ug/ml): ~15% | inhibition at 16 µg/mL ([3]; 16 ug/ml): ~50% | inhibition at 32 µg/mL ([3]; 32 ug/ml): ~90% | CFU, Test Compound ([4]; test compound 50 μg/ml 24 h): 7.7 loglo CFU | CFU, Tobramycin and Test Compound ([4]; test compound 50 μg/ml 24 h): 5.3 loglo CFU | CFU, Test Compound ([4]; test compound 100 μg/ml 24 h): 7.7 loglo CFU | CFU, Tobramycin and Test Compound ([4]; test compound 100 μg/ml 24 h): 5.5 loglo CFU | CFU, Test Compound ([4]; test compound 200 μg/ml 24 h): 7.5 loglo CFU | CFU, Tobramycin and Test Compound ([4]; test compound 200 μg/ml 24 h): 5.2 loglo CFU
